According to US7335669B2, “Use of dihydroquinoline to aid in increasing milk production and feed utilization” (Novus International, Inc., priority 2002, dated 2008):

Experiments:
[1] = test system: lactating dairy cows; test: Example 2: switch-over pen trial, ethoxyquin 65 ppm in feed for three weeks, approximately 2400 lactating dairy cows; assay type: in vivo
Text: Approximately 2400 lactating dairy cows were divided into two treatment groups of four pens per group. The cows in one of the two groups were fed ethoxyquin (at a concentration of 65 ppm by weight based on the weight of the total feed fed to the cows) for three weeks, with the four pens of the other group serving as controls. For the next two weeks, neither of the groups was fed ethoxyquin. The pens were then switched so that the previous control group was fed ethoxyquin (at a concentration of 65 ppm by weight based on the weight of the total feed fed to the cows) for three weeks. Milk production and feed intake were measured and feed efficiencies were calculated. The following table reports the means and pooled SEM results after correction for pen effects (wherein “Treated” refers to the cows receiving the ethoxyquin): […]

[2] = test system: cows; test: Example 1: two-week feeding regimen at four ethoxyquin concentration levels, twenty-four cows; assay type: in vivo
Text: Each of twenty-four cows was randomly assigned to a feeding regimen of one of four concentration levels of ethoxyquin (0 ppm, 50 ppm, 100 ppm, and 150 ppm by weight on an as fed basis) for a two-week treatment period. Data were collected before and after the feeding regimen. The results were as follows, wherein the ethoxyquin concentration (“Ethox. Dose”) is presented in ppm by weight, on an as fed basis and “TMR” represents the total mixed ration consumed by the cows in pounds per day: […]

[3] = poultry and lambs, dietary ethoxyquin; cited from earlier work
[4] = Detection of ethoxyquin in milk from cattle treated by the method; assay type: in vivo
Text: Of course, measurement of chemical levels has limitations. […] In any event, the level of ethoxyquin in the milk produced according to this invention certainly is less than 0.1 ppm by weight.

[5] = test system: broilers and layers; details: cited from earlier work
[6] = about 125 to about 150 ppm by weight on DMI basis in diet of dairy cattle; cited from earlier work
[7] = ethoxyquin 65 ppm by weight of total feed, three weeks, mean after correction for pen effects
[8] = ethoxyquin 50 ppm by weight as fed basis
[9] = ethoxyquin 100 ppm as fed basis
[10] = ethoxyquin 100 ppm by weight as fed basis
[11] = ethoxyquin 150 ppm as fed basis
[12] = ethoxyquin 150 ppm by weight as fed basis

In the case of `CCOc1ccc2c(c1)C(C)=CC(C)(C)N2` [ethoxyquin, 6-ethoxy-1,2-dihydro-2,2,4-trimethylquinoline], the “Difference in milk production, treated vs control” value ([1]; ethoxyquin 65 ppm) is reported as “little difference in milk production”, the “Feed Efficiency As Fed Basis” value ([1]; ethoxyquin 65 ppm by weight of total feed, three weeks, calculated from milk production and feed intake) is reported as 0.89 and the “Feed Intake As Fed Basis” value [1, 7] is reported as 93.5 lbs./day. For the same compound, the “Feed Intake DMI Basis” value [1, 7] was 60.3 lbs./day, the “Milk Production” value [1, 7] was 83.4 lbs./day and the “Improvement in feed efficiency (pounds of milk produced per pounds of TMR intake)” value ([1]; ethoxyquin 65 ppm vs control, printed as on a dry matter basis) was 4.7%. For the same compound, the “Enhancement of milk production, comparison of concentrations” value ([2]; 50 ppm vs 150 ppm by weight, as fed basis) was 50 ppm has yielded greater enhancement of milk production than has 150 ppm, the “Feed Intake (as fed basis), TMR in First Week” value (“Feed Intake … in First Week” for short) ([2]; ethoxyquin 50 ppm as fed basis) was 91 pounds per day and the “Milk Production Based on Feed Efficiency, Lbs. Milk / TMR in First Week” value ([2]; ethoxyquin 50 ppm as fed basis) was 0.87 lbs. Milk Produced/pounds TMR Intake. The “Feed Intake (as fed basis), TMR in Second Week” value (“Feed Intake … in Second Week” below) ([2]; ethoxyquin 50 ppm as fed basis) was 91 pounds per day, the “Milk Production Based on Feed Efficiency, Lbs. Milk / TMR in Second Week” value ([2]; ethoxyquin 50 ppm as fed basis) was 0.91 lbs. Milk Produced/pounds TMR Intake and the “Milk Produced During First Week” value [2, 8] was 79 lbs./day. For the same compound, the “Milk Produced During Second Week” value [2, 8] was 82 lbs./day, the “Feed Intake … in First Week” value [2, 9] was 92 pounds per day and the “Milk Production Based on Feed Efficiency, Lbs. Milk / TMR in First Week” value [2, 9] was 0.80 lbs. Milk Produced/pounds TMR Intake. The “Feed Intake … in Second Week” value [2, 9] was 91 pounds per day, the “Milk Production Based on Feed Efficiency, Lbs. Milk / TMR in Second Week” value [2, 9] was 0.79 lbs. Milk Produced/pounds TMR Intake and the “Milk Produced During First Week” value [2, 10] was 74 lbs./day. For the same compound, the “Milk Produced During Second Week” value [2, 10] was 72 lbs./day, the “Feed Intake … in First Week” value [2, 11] was 92 pounds per day and the “Milk Production Based on Feed Efficiency, Lbs. Milk / TMR in First Week” value [2, 11] was 0.76 lbs. Milk Produced/pounds TMR Intake. For the same compound, the “Feed Intake … in Second Week” value [2, 11] was 92 pounds per day, the “Milk Production Based on Feed Efficiency, Lbs. Milk / TMR in Second Week” value [2, 11] was 0.80 lbs. Milk Produced/pounds TMR Intake and the “Milk Produced During First Week” value [2, 12] was 70 lbs./day. The “Milk Produced During Second Week” value [2, 12] was 74 lbs./day, the “Ethoxyquin in muscle tissue” value [3] was “detected in the muscle tissue of poultry and lambs” and the “Ethoxyquin detected in milk” value ([4]; milk from cattle treated by the method of the invention) was “no ethoxyquin has been detected”. The “Level of ethoxyquin in the milk” value ([4]; milk produced according to the invention) was “less than 0.1 ppm by weight”, the “Effectiveness relative to alpha-tocopherol acetate” value ([5]; broiler study, 150 ppm ethoxyquin in feed) was “as effective as about 15 ppm alpha-tocopherol acetate” and the “Lipid oxidation in muscle tissues” value ([5]; dietary ethoxyquin, broilers 75 to 150 ppm, layers 500 ppm in feed) was “prevent lipid oxidation in muscle tissues in broilers and layers”. The “Ethoxyquin residue in milk” value [6] was “appearance of ethoxyquin in the fat of the resulting milk”.
